Measurements from ChEMBL document CHEMBL5053490, “Fusaricide is a Novel Iron Chelator that Induces Apoptosis through Activating Caspase-3” (J Nat Prod, 2021).
Calls of active or inactive are those of the source. The rule behind the calls is not given here.

Columns and labels:
[1] = test system: NCI-H226; assay: Cytotoxicity against human NCI-H226 cells assessed as cell viability rescue at 10 uM incubated for 24 hrs in presence of Fecl3 by CCK8 assay; assay type: functional, cell-based
[2] = test system: NCI-H460; assay: Cytotoxicity against human NCI-H460 cells assessed as cell viability rescue at 10 uM incubated for 24 hrs in presence of Fecl3 by CCK8 assay; assay type: functional, cell-based
[3] = test system: NCI-H1299; assay: Cytotoxicity against human NCI-H1299 cells assessed as cell viability rescue at 10 uM incubated for 24 hrs in presence of Fecl3 by CCK8 assay; assay type: functional, cell-based
[4] = test system: NCI-H460; assay: Cytotoxicity against human NCI-H460 cells assessed as reduction in cell viability incubated for 24 hrs by CCK8 assay; assay type: functional, cell-based; settings: NCI-H460, 24 h
[5] = test system: NCI-H460; assay: Cytotoxicity against human NCI-H460 cells assessed as reduction in cell viability incubated for 48 hrs by CCK8 assay; assay type: functional, cell-based; settings: NCI-H460, 48 h
[6] = test system: NCI-H460; assay: Cytotoxicity against human NCI-H460 cells assessed as reduction in cell viability at 5 uM incubated for 48 hrs by CCK8 assay; assay type: functional, cell-based
[7] = test system: MRC5; assay: Cytotoxicity against human MRC5 cells up to 100 uM assessed as reduction in cell viability incubated for 48 hrs by CCK8 assay; assay type: cell-based; settings: mrc5, 48 h
[8] = test system: HEK-293T; assay: Cytotoxicity against human HEK293T cells up to 100 uM assessed as reduction in cell viability incubated for 48 hrs by CCK8 assay; assay type: cell-based
[9] = test system: NCI-H460; assay: Induction of apoptosis in human NCI-H460 cells assessed as viable cells at 10 uM incubated for 12 hrs by AnnexinV-FITC/propidium iodide staining based flow cytometry (reference value: 90.4%); assay type: functional; settings: read-out: Activity
[10] = test system: NCI-H460; assay: Induction of apoptosis in human NCI-H460 cells assessed as early apoptotic cells at 10 uM incubated for 12 hrs by AnnexinV-FITC/propidium iodide staining based flow cytometry (reference value: 0.74%); assay type: functional
[11] = test system: NCI-H460; assay: Induction of apoptosis in human NCI-H460 cells assessed as late apoptotic cells at 10 uM incubated for 12 hrs by AnnexinV-FITC/propidium iodide staining based flow cytometry (reference value: 7.54%); assay type: functional
[12] = test system: NCI-H460; assay: Induction of apoptosis in human NCI-H460 cells assessed as necrotic cells at 10 uM incubated for 12 hrs by AnnexinV-FITC/propidium iodide staining based flow cytometry (reference value: 1.28%); assay type: functional
[13] = test system: NCI-H460; assay: Induction of apoptosis in human NCI-H460 cells assessed as viable cells at 10 uM incubated for 24 hrs by AnnexinV-FITC/propidium iodide staining based flow cytometry (reference value: 90.4%); assay type: functional; settings: read-out: Activity
[14] = test system: NCI-H460; assay: Induction of apoptosis in human NCI-H460 cells assessed as early apoptotic cells at 10 uM incubated for 24 hrs by AnnexinV-FITC/propidium iodide staining based flow cytometry (reference value: 0.74%); assay type: functional
[15] = test system: NCI-H460; assay: Induction of apoptosis in human NCI-H460 cells assessed as late apoptotic cells at 10 uM incubated for 24 hrs by AnnexinV-FITC/propidium iodide staining based flow cytometry (reference value: 7.54%); assay type: functional
[16] = test system: NCI-H460; assay: Induction of apoptosis in human NCI-H460 cells assessed as necrotic cells at 10 uM incubated for 24 hrs by AnnexinV-FITC/propidium iodide staining based flow cytometry (reference value: 1.28%); assay type: functional
[17] = test system: NCI-H460; assay: Induction of apoptosis in human NCI-H460 cells assessed as viable cells at 10 uM incubated for 36 hrs by AnnexinV-FITC/propidium iodide staining based flow cytometry (reference value: 90.4%); assay type: functional; settings: read-out: Activity
[18] = test system: NCI-H460; assay: Induction of apoptosis in human NCI-H460 cells assessed as early apoptotic cells at 10 uM incubated for 36 hrs by AnnexinV-FITC/propidium iodide staining based flow cytometry (reference value: 0.74%); assay type: functional
[19] = test system: NCI-H460; assay: Induction of apoptosis in human NCI-H460 cells assessed as late apoptotic cells at 10 uM incubated for 36 hrs by AnnexinV-FITC/propidium iodide staining based flow cytometry (reference value: 7.54%); assay type: functional
[20] = test system: NCI-H460; assay: Induction of apoptosis in human NCI-H460 cells assessed as necrotic cells at 10 uM incubated for 36 hrs by AnnexinV-FITC/propidium iodide staining based flow cytometry (reference value: 1.28%); assay type: functional
[21] = test system: NCI-H460; assay: Induction of apoptosis in human NCI-H460 cells assessed as viable cells at 10 uM incubated for 48 hrs by AnnexinV-FITC/propidium iodide staining based flow cytometry (reference value: 90.4%); assay type: functional; settings: read-out: Activity
[22] = test system: NCI-H460; assay: Induction of apoptosis in human NCI-H460 cells assessed as early apoptotic cells at 10 uM incubated for 48 hrs by AnnexinV-FITC/propidium iodide staining based flow cytometry (reference value: 0.74%); assay type: functional
[23] = test system: NCI-H460; assay: Induction of apoptosis in human NCI-H460 cells assessed as late apoptotic cells at 10 uM incubated for 48 hrs by AnnexinV-FITC/propidium iodide staining based flow cytometry (reference value: 7.54%); assay type: functional
[24] = test system: NCI-H460; assay: Induction of apoptosis in human NCI-H460 cells assessed as necrotic cells at 10 uM incubated for 48 hrs by AnnexinV-FITC/propidium iodide staining based flow cytometry (reference value: 1.28%); assay type: functional
[25] = test system: NCI-H460; assay: Induction of apoptosis in human NCI-H460 cells assessed as decrease in PARP measured upto 48 hrs by Western blot analysis; assay type: functional, cell-based; settings: TDE = time-dependent effect
[26] = test system: NCI-H460; assay: Induction of apoptosis in human NCI-H460 cells assessed as increase in cleaved PARP measured upto 48 hrs by Western blot analysis; assay type: functional, cell-based; settings: TDE = time-dependent effect
[27] = test system: NCI-H460; assay: Induction of apoptosis in human NCI-H460 cells assessed as increase in Bax at 10 uM measured by Western blot analysis; assay type: functional, cell-based
[28] = test system: NCI-H460; assay: Induction of apoptosis in human NCI-H460 cells assessed as increase in Caspase 3 activity at 10 uM measured by Western blot analysis; assay type: functional, cell-based; settings: time <= 48.0 hrs, TDE = time-dependent effect
[29] = test system: NCI-H460; assay: Induction of morphological changes in human NCI-H460 cells assessed as roughness of cell membrane at 10 uM measured after 24 hrs by Hoechst 33342 staining based assay; assay type: functional
[30] = test system: NCI-H460; assay: Induction of cell cycle arrest in human NCI-H460 cells assessed as accumulation at sub G0/G1 phase at 10 uM after 12 hrs by flow cytometric analysis (reference value: 64.5%); assay type: functional
[31] = test system: NCI-H460; assay: Induction of cell cycle arrest in human NCI-H460 cells assessed as accumulation at sub S phase at 10 uM after 12 hrs by flow cytometric analysis (reference value: 25.7%); assay type: functional
[32] = test system: NCI-H460; assay: Induction of cell cycle arrest in human NCI-H460 cells assessed as accumulation at sub G2/M phase at 10 uM after 12 hrs by flow cytometric analysis (reference value: 9.8%); assay type: functional
[33] = test system: NCI-H460; assay: Induction of cell cycle arrest in human NCI-H460 cells assessed as accumulation at sub G0/G1 phase at 10 uM after 24 hrs by flow cytometric analysis (reference value: 64.5%); assay type: functional
[34] = test system: NCI-H460; assay: Induction of cell cycle arrest in human NCI-H460 cells assessed as accumulation at […] at 10 uM after 24 hrs by flow cytometric analysis (reference value: 25.7%); assay type: functional
[35] = test system: NCI-H460; assay: Induction of cell cycle arrest in human NCI-H460 cells assessed as accumulation at sub G2/M phase at 10 uM after 24 hrs by flow cytometric analysis (reference value: 9.8%); assay type: functional
[36] = test system: NCI-H460; assay: Induction of cell cycle arrest in human NCI-H460 cells assessed as decrease in cyclin D1 expression at 10 uM after 24 hrs by Western blot analysis; assay type: functional, cell-based
[37] = test system: NCI-H460; assay: Induction of cell cycle arrest in human NCI-H460 cells assessed as increase in activated gammaH2AX expression at 10 uM after 24 hrs by Western blot analysis; assay type: functional, cell-based
[38] = test system: NCI-H460; assay: Induction of cell cycle arrest in human NCI-H460 cells assessed as increase in p-53 expression at 10 uM after 24 hrs by Western blot analysis; assay type: functional, cell-based
[39] = test system: NCI-H460; assay: Effect on labile iron pool in human NCI-H460 cells assessed as […] at 10 uM by calcein-AM staining based flow cytometry analysis relative to control; assay type: functional, cell-based
[40] = test system: NCI-H460; assay: Upregulation of TfR1 level in human NCI-H460 cells at 10 uM by Western blot analysis; assay type: functional, cell-based
[41] = test system: NCI-H460; assay: Downregulation of FTH level in human NCI-H460 cells at 10 uM by Western blot analysis; assay type: functional, cell-based
[42] = test system: NCI-H460; assay: Induction of morphological changes in human NCI-H460 cells assessed as chromatin condensation at 10 uM measured after 24 hrs by Hoechst 33342 staining based assay; assay type: functional, cell-based
[43] = test system: NCI-H460; assay: Reversal of cell death in human NCI-H460 cells at up to 40 uM measured after 24 hrs by in presence of FeCl3; assay type: functional, cell-based
[44] = test system: NCI-H226; assay: Reversal of cell death in human NCI-H226 cells at up to 40 uM measured after 24 hrs by in presence of FeCl3; assay type: functional, cell-based
[45] = test system: NCI-H1299; assay: Reversal of cell death in human NCI-H1299 cells at up to 40 uM measured after 24 hrs by in presence of FeCl3; assay type: functional, cell-based
[46] = test system: NCI-H460; assay: Induction of apoptosis in human NCI-H460 cells assessed as viable cells at 10 uM incubated for 24 hrs in presence of FeCl3 by AnnexinV-FITC/propidium iodide staining based flow cytometry (reference value: 89.5%); assay type: functional; settings: read-out: Activity
[47] = test system: NCI-H460; assay: Induction of apoptosis in human NCI-H460 cells assessed as early apoptotic cells at 10 uM incubated for 24 hrs in presence of FeCl3 by AnnexinV-FITC/propidium iodide staining based flow cytometry (reference value: 1.69%); assay type: functional
[48] = test system: NCI-H460; assay: Induction of apoptosis in human NCI-H460 cells assessed as late apoptotic cells at 10 uM incubated for 24 hrs in presence of FeCl3 by AnnexinV-FITC/propidium iodide staining based flow cytometry (reference value: 6.09%); assay type: functional
[49] = test system: NCI-H460; assay: Induction of apoptosis in human NCI-H460 cells assessed as necrotic cells at 10 uM incubated for 24 hrs in presence of FeCl3 by AnnexinV-FITC/propidium iodide staining based flow cytometry (reference value: 2.4%); assay type: functional

CC(=O)O[C@H]1C(=O)[C@@]2(C)[C@H]([C@H](OC(=O)c3ccccc3)[C@]3(O)C[C@H](OC(=O)[C@H](O)[C@@H](NC(=O)c4ccccc4)c4ccccc4)C(C)=C1C3(C)C)[C@]1(OC(C)=O)CO[C@@H]1C[C@@H]2O
Activity [1]: inactive
Activity [2]: inactive
Activity [3]: inactive

O=C(O)c1ccc(-n2nc(-c3ccccc3O)nc2-c2ccccc2O)cc1 [DEFERASIROX]
IC50 [4]: 98.4 µM
IC50 [5]: 20.4 µM

CC[C@H]1Oc2ccn(O)c(=O)c2[C@H]2[C@H](C)C[C@H](C)C[C@]12C
Activity [1]: inactive
Activity [6]: Dose-dependent effect
Activity [7]: Toxic
Activity [8]: Toxic
IC50 [4]: 4.94 µM
IC50 [5]: 1.76 µM
viability at 10 µM [9]: 86.3%
Activity [10]: 2.93%
Activity [11]: 9.5%
Activity [12]: 1.7%
viability at 10 µM [13]: 75.6%
Activity [14]: 6.27%
Activity [15]: 15.7%
Activity [16]: 2.44%
viability at 10 µM [17]: 56.1%
Activity [18]: 4.29%
Activity [19]: 35.7%
Activity [20]: 3.92%
viability at 10 µM [21]: 34.2%
Activity [22]: 4.51%
Activity [23]: 57.9%
Activity [24]: 3.4%
Activity [25]: Tde
Activity [26]: Tde
Activity [27]: Active
Activity [28]: Tde
Activity [29]: Active
Activity [30]: 71.8%
Activity [31]: 25.9%
Activity [32]: 2.2%
Activity [33]: 73.9%
Activity [34]: 26%
Activity [35]: 0.8%
Activity [36]: Active
Activity [37]: Active
Activity [38]: Active
Activity [39]: Active
Activity [40]: Active
Activity [41]: Active
Activity [42]: Active
Activity [2]: inactive
Activity [3]: inactive
Activity [43]: Active
Activity [44]: Active
Activity [45]: Active
viability at 10 µM [46]: 93.8%
Activity [47]: 0.75%
Activity [48]: 4.43%
Activity [49]: 1.01%
